Results: patent US20220023300A1, “THERAPEUTIC AND PROPHYLACTIC METHOD FOR TUMOR TREATABLE WITH ENDOCRINE THERAPY BY COMBINED USE OF FIBROBLAST GROWTH FACTOR RECEPTOR INHIBITOR WITH ENDOCRINE THERAPY” (TAIHO PHARMACEUTICAL CO., LTD., priority 2018, published 2022)

How the values were obtained:
[1] = tested on: MDA-MB-134VI cells; assay: Cell growth-inhibitory effect of combined use (T/C), CellTiter-Glo 2.0; details: for viability at 0.1 µM: Homo sapiens, MDA-MB-134-VI, 120 h, read-out: T/C (treated/control) cell viability
Method: The cell viability was measured using CellTiter-Glo 2.0 (Promega). […] The number of cells seeded was 500 cells/80 μL per well. […] After drug addition, the cells were further incubated at 37° C. and 5% CO2 for 120 hours. Experiments were carried out in triplicate (3 wells per treatment group). The cell viability was calculated by adding 100 μL of CellTiter-Glo 2.0 reagent per well, incubating at room temperature for 30 minutes, and then measuring the chemiluminescence of each well with a plate reader (EnSpire). The cell viability in the case of drug addition was calculated as a ratio with respect to the control group, which was set to 100%, according to the following formula, and the average value of the data of three wells was used for the analysis.
Cell viability (%)=(chemiluminescence in the case of drug addition)/(chemiluminescence of control group)×100

[2] = tested on: breast cancer; details: phase II; subpopulation of FGF pathway-amplified breast cancer patients; cited from earlier work

| Compound | T/C (treated/control) cell viability ([1]; MDA-MB-134VI, drug alone at 1 μM, 120 hours) [%] | viability at 0.1 µM [1] [%] | median value of the mean progression-free survival (PFS) [2] [months] |
| --- | --- | --- | --- |
| 4-hydroxytamoxifen | 65 | – | – |
| C[C@]12CC[C@@H]3c4ccc(O)cc4C[C@@H](CCCCCCCCC[S+]([O-])CCCC(F)(F)C(F)(F)F)[C@H]3[C@@H]1CC[C@@H]2O (stereo partly shown) [fulvestrant] | – | 75 | 5.5 |
| C=CC(=O)N1CC[C@H](n2nc(C#Cc3cc(OC)cc(OC)c3)c3c(N)ncnc32)C1 [compound 1, (S)-1-(3-(4-amino-3-((3,5-dimethoxyphenyl)ethynyl)-1H-pyrazolo[3,4-d]pyrimidin-1-yl)pyrrolidin-1-yl)prop-2-en-1-one] | – | 35 | – |
